Test system: H1 human ES cells
Assay: Neuronal differentiation of human ES cells, differentiation protocol 1
Type: cell-based
Conditions: vs DMSO
Experimental: Two different protocols were used to induce neuronal differentiation of human ES cells. In the first protocol, human ES cells were mechanically dissociated into small aggregates and plated on laminin/polyornithine coated six-well plates. Cells were cultured 2 weeks in human SR medium (DMEM F-12 supplemented with 15% knockout serum (Gibco), non-essential amino acids, penicillin and streptomycin), followed by 4 weeks in N2 medium. Compounds were added throughout these first 6 weeks. Subsequently, cells were mechanically dissociated and replated on polyornithine/laminin-coated 6 well plates. Throughout the text, this first differentiation protocol will be referred to as “differentiation protocol 1”. The second differentiation protocol was derived from previously described differentiation conditions (Nat et al., 2007). In the second differentiation protocol, undifferentiated human ES cells were mechanically dissociated into small aggregates and cultured in suspension on low-attachment six-well plates. For the first 4 days, they were cultured in neuronal induction medium (DMEM F-12, N2 supplement, penicillin and streptomycin), which was changed to simple neuronal proliferation medium (DMEM F-12, N2 supplement, 20 ng/ml bFGF, penicillin and streptomycin) for 2 additional days. […]
Immunostaining quantification. Immunostaining and nuclear staining quantifications were performed using the MetaXpress software (Molecular devices). Total neurite outgrowth was quantified using the neurite outgrowth analysis module, and total cell numbers were quantified with the count nuclei analysis module.
Phenazopyridine enhances neuronal differentiation of human ES cells. […] After 8 weeks of differentiation, the DMSO-treated cell population was highly heterogeneous as assessed by immunostaining for β3-tubulin, nestin, vimentin and GFAP. […] To quantify neuronal differentiation, the inventors chose to measure total neurite outgrowth and divided it by total cell number at different time points in three independent experiments (FIG. 7A).

Nc1ccc(/N=N/c2ccccc2)c(N)n1 [phenazopyridine]
total neurite outgrowth divided by total cell number (efficiency of differentiation into mature neurons) (3 μM for first 6 weeks, three independent experiments, p=0.045): always superior to DMSO-treated cells | homogeneity of cell population by immunostaining (β3-tubulin, nestin, vimentin, GFAP) (after 8 weeks of differentiation): more homogeneous, most cells being positive for nestin, β3-tubulin, and vimentin, with occasional neuronal networks | formation of neuronal networks (after 10 weeks): further neuronal networks formed

— patent publication US8609413B2, “Neurons, astrocytes and oligodendrocytes differentiated from a mammalian pluripotent or neural stem cells exposed to a pyridine deriviative” (Research Development Foundation, priority 2007, dated 2013)
